Laboratory results: patent US10076539B2 (priority 2016, dated 2018)
Values after ≈ are worked out from the molar mass of the structure shown.

Assays:
gout attack = test system: gout attack
Source text: 2. Preparation of Embrocation • Take KOH16.8 g, dissolve in 1 liters of distilled water, and get a concentration of 0.3 mol/L.
They dripped a cotton swab into the embrocation (0.1 mol/L) prepared by themself and embrocated on the attack position.

blood uric acid [1] = settings: applicant
Experimental: On December 3, they took a footbath in 45° C. soaking solution (0.01 mol/L) for an hour, and then went to test at Chaohu Hospital of Anhui Medical University.

blood uric acid [2] = settings: applicant; remark: listed apart in the source
Experimental: 2. Preparation of Oral Liquid • Take KOH0.12 g, dissolve in 1 liters of distilled water, and get a concentration of 0.0021 mol/L. Take orally for 50 ml per time and one time per day.
So they began to take oral use tests from January 2016. […] The oral concentration (mol/L) they had tried includes 0.001, 0.0018, 0.0021, 0.0025, 0.003, 0.005 and 0.008 in turn.

gout = test system: gout
Experimental: The solution can be also heated to 40-48° C. and then used for footbath. For acute gout attack, if the attack position is easy to soak, such as ankles, toe joints, hands and wrist joints, the solution can also be used to soak such positions. The solution should be embrocated on the attack positions if such positions are not convenient to soak, such as knee joints and elbow joints. […] Drip a cotton swab in the embrocation and embrocate on the attack positions, or drip a dressing in the embrocation and apply on the attack positions. It is very inconvenient to undress when applying topical drug in cold season, then oral drug is an option. […] Have 50 ml of the liquid before meals. For the sufferers of high blood uric acid and acute, intermittent and chronic gout, the embrocation, soak solution and oral liquid can be used separately or concurrently at the same time.

high uric acid and gout = settings: water injection for intravenous drip, high uric acid and gout sufferers
[3] = cited from earlier work; for solubility: 37° C.
[4] = cited from earlier work
[5] = December 3, one footbath in 45° C. soaking solution (0.01 mol/L) for an hour
[6] = baseline, day after eating two chicken livers

[K+].[OH-] [KOH, potassium hydroxide]
time until pain was relieved and foot could touch the ground (gout attack; embrocation 0.1 mol/L on first metatarsophalangeal joint, applicant, May 2008): about ten | time until gout symptoms disappeared (gout attack; embrocation 0.1 mol/L, 2-3 times per day, applicant): three | effect on swelling and soreness (forerunner of gout), prevention of onset (gout attack; embrocation, molar concentration of KOH solution 0.1, 0.2, 0.3 and 0.4, 2009-2013, applicant): all were effective | blood uric acid after footbath (blood uric acid [1]; [5]): 486 μmol/LL | urine uric acid after footbath (blood uric acid [1]; [5]): 6.59 mmol/L | blood uric acid after footbath once a day (blood uric acid [1]; December 10, footbath once a day since December 3, soaking solution 0.01 mol/L): 389 µmol/L | drop of blood uric acid (blood uric acid [1]; December 10 versus 495 μmol/L before footbath): 21% | blood uric acid before footbath (blood uric acid [1]; [6]): 495 µmol/L | urine uric acid before footbath (blood uric acid [1]; [6]): 6.3 mmol/L | blood uric acid after oral use (blood uric acid [2]; April 2016, after oral KOH solution 23 times since January 2016): 351 µmol/L | discomfort / taste of oral liquid (blood uric acid [2]; oral liquid 0.001 mol/L-0.005 mol/L): brought no discomfort to the body | consecutive days of application until gout symptoms completely disappear (gout; footbath, oral or embrocation): 2 to 3 days | time to relief of symptoms (pain and swelling during gout attack) (gout; footbath, oral or embrocation): ten | corrosion of the skin (gout; low concentration KOH): will not corrode the skin | side effects (gout; low concentration KOH): no side effects | anticipated effect of intravenous drip (high uric acid and gout): immediate effect

O=c1[nH]c(=O)c2[nH]c(=O)[nH]c2[nH]1 [potassium urate]
solubility compared with uric acid and sodium urate [3]: much higher than uric acid and sodium urate

O=c1[nH]c(=O)c2[nH]c([O-])nc2[nH]1.[Na+] [sodium urate]
solubility [3]: 8.0 mM

O=c1[nH]c(=O)c2[nH]c(=O)[nH]c2[nH]1 [uric acid, 2,6,8-Trihydroxypurine]
dissociation constant (PKa), the 3rd nitrogen dissociation [4]: 10.3 | solubility [3]: 0.5 mM (≈ 84.1 µg/mL)
